From the supplement of paper PMC10307832

Columns and labels:
Test in all cases: relative viability (nuclei count vs DMSO), 5 days (fraction); higher = more cells survive
[1] = compound: CC(=O)c1c(C)c2cnc(Nc3ccc(N4CCNCC4)cn3)nc2n(C2CCCC2)c1=O [Palbociclib] + COc1cccc2cc(-c3nc([C@H]4CC[C@H](C(=O)O)CC4)n4ncnc(N)c34)[nH]c12 [OSI-027] (partner 0.5 µM)
Summary of the method: (§1)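 Cells from lung cancer lines were seeded into 1536-well plates and, one day later, dosed by pin tool. Treatments were either a single drug or a fixed dose of an anchor drug with five library-drug doses (not always all listed) in √10 steps. After 5 days, nuclei were stained in a one-step fixation (final 0.05% Triton X-100, 1% formaldehyde, 1 ug/ml Hoechst) and counted on 4× images, and relative viability is the treated-to-vehicle nuclei ratio, as the median of duplicate plates.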

[2] = compound: CC(=O)c1c(C)c2cnc(Nc3ccc(N4CCNCC4)cn3)nc2n(C2CCCC2)c1=O [Palbociclib] + CS(=O)(=O)CCNCc1ccc(-c2ccc3ncnc(Nc4ccc(OCc5cccc(F)c5)c(Cl)c4)c3c2)o1 [Lapatinib] (partner 2 µM)
Summary of the method: as §1

[3] = compound: CC(=O)c1c(C)c2cnc(Nc3ccc(N4CCNCC4)cn3)nc2n(C2CCCC2)c1=O [Palbociclib] + NC(=O)Nc1cc(-c2cccc(F)c2)sc1C(=O)N[C@H]1CCCNC1 [AZD7762] (partner 0.2 µM)
Summary of the method: as §1

[4] = compound: CC(=O)c1c(C)c2cnc(Nc3ccc(N4CCNCC4)cn3)nc2n(C2CCCC2)c1=O [Palbociclib] + O=C(c1cc(Cc2n[nH]c(=O)c3ccccc23)ccc1F)N1CCN(C(=O)C2CC2)CC1 [Olaparib] (partner 8 µM)
Summary of the method: as §1

Row | Cell Line | relative viability ([1]; first compound 0.01 µM) | relative viability ([1]; first compound 0.03162 µM) | relative viability ([1]; first compound 0.1 µM) | relative viability ([1]; first compound 0.3162 µM) | relative viability ([1]; first compound 1 µM) | relative viability ([2]; first compound 0.01 µM) | relative viability ([2]; first compound 0.03162 µM) | relative viability ([2]; first compound 0.1 µM) | relative viability ([2]; first compound 0.3162 µM) | relative viability ([2]; first compound 1 µM) | relative viability ([3]; first compound 0.01 µM) | relative viability ([3]; first compound 0.03162 µM) | relative viability ([3]; first compound 0.1 µM) | relative viability ([3]; first compound 0.3162 µM) | relative viability ([3]; first compound 1 µM) | relative viability ([4]; first compound 0.01 µM) | relative viability ([4]; first compound 0.03162 µM) | relative viability ([4]; first compound 0.1 µM) | relative viability ([4]; first compound 0.3162 µM) | relative viability ([4]; first compound 1 µM)
1 | NCI-H1993 | 0.533 | 0.505 | 0.513 | 0.524 | 0.509 | 0.841 | 0.715 | 0.661 | 0.624 | 0.658 | 0.748 | 0.646 | 0.575 | 0.632 | 0.528 | 1.14 | 0.907 | 0.945 | 0.846 | 0.703
2 | NCI-H2085 | 0.658 | 0.55 | 0.547 | 0.574 | 0.369 | 0.756 | 0.7 | 0.669 | 0.663 | 0.362 | 1.06 | 0.912 | 0.942 | 0.76 | 0.473 | 0.788 | 0.767 | 0.712 | 0.584 | 0.488
3 | NCI-H2087 | 0.433 | – | 0.361 | 0.278 | 0.25 | 1.08 | 0.814 | 0.688 | 0.649 | 0.442 | 1.18 | 1.16 | 1.03 | 0.902 | 0.641 | 0.721 | 0.517 | 0.403 | 0.437 | 0.248
4 | NCI-H2126 | 0.694 | 0.53 | 0.443 | 0.441 | 0.378 | 0.819 | 0.581 | 0.728 | 0.618 | 0.452 | 0.937 | 0.848 | 0.8 | 0.732 | 0.584 | 0.972 | 0.833 | 0.698 | 0.719 | 0.526
5 | NCI-H2170 | 0.72 | 0.642 | 0.61 | 0.638 | 0.407 | 0.29 | 0.23 | 0.245 | 0.233 | 0.25 | 0.925 | 0.736 | 0.875 | 0.773 | 0.514 | 0.675 | 0.61 | 0.551 | 0.488 | 0.436
6 | NCI-H2347 | 0.467 | – | 0.402 | 0.379 | 0.308 | 0.957 | 0.823 | 0.71 | 0.682 | 0.751 | 0.793 | 0.638 | 0.646 | 0.633 | 0.48 | 0.606 | 0.549 | 0.564 | 0.51 | 0.49
7 | NCI-H2405 | 0.586 | 0.487 | 0.492 | 0.483 | 0.396 | 1.04 | – | 0.819 | 0.901 | 0.761 | 0.666 | 0.78 | 0.726 | 0.62 | 0.383 | 0.842 | 0.841 | 0.765 | 0.682 | 0.527
8 | NCI-H3122 | 0.82 | 0.602 | 0.346 | 0.172 | 0.169 | 0.994 | 0.998 | 0.911 | 0.819 | 0.579 | 0.927 | 0.82 | 0.897 | 0.715 | 0.347 | 0.596 | 0.576 | 0.635 | 0.584 | 0.528
9 | PC-3 [JPC-3] | 0.728 | 0.599 | 0.561 | 0.483 | 0.349 | 0.436 | 0.378 | 0.433 | 0.415 | 0.344 | 0.794 | 0.814 | 0.619 | 0.592 | 0.41 | 1.16 | 0.903 | 0.816 | 0.872 | 0.526
10 | PC-14 | 0.964 | 0.515 | 0.572 | 0.603 | 0.362 | 0.348 | 0.343 | 0.257 | 0.202 | 0.195 | 0.453 | 0.349 | 0.277 | 0.289 | 0.16 | 0.31 | 0.296 | 0.311 | 0.214 | 0.176
11 | RERF-LC-KJ | 0.541 | 0.583 | 0.508 | 0.598 | 0.64 | 0.846 | 0.81 | 0.817 | 0.869 | 0.837 | 0.966 | 0.661 | 0.932 | 0.948 | 0.996 | 0.896 | 0.83 | 0.919 | 0.942 | 0.821
